Results on five molecules are retold here after US10464967B2, “Non-hormonal steroid modulators of NF-κβ for treatment of disease” (Reveragen Biopharma, Inc., priority 2011, dated 2019).

SMILES strings stand for the structures.

One test has as its system mdx mice. The test is described as follows: In vivo mdx mouse model of dystrophy. As to the method:
Separate groups (n=12-14) of mdx mice were treated with prednisolone (5 mg/kg/day; per oral in feed), Example 1 (20 and 40 mg/kg/day; per oral in feed) and Example 2 (20 and 40 mg/kg/day; per oral in feed) for 3 months. All mice underwent 30 min biweekly treadmill exercise during the treatment duration to unmask the mild disease phenotype of mdx mouse model.
Motor coordination and strength were assessed using Rota-rod (Ugo Basile, VA, Italy) testing. Briefly, mice were trained on the rota-rod for two days before collecting data. Each acclimatization session consisted of four training sessions, 2 per day and each session lasting 120 seconds at a speed of 5 rpm). Each trial consisted of placing the mice on the rod at 10 rpm for 60 seconds (stabilizing period) followed by an acceleration from 10 rpm to 40 rpm within the first 25 seconds until the animal fell from the rod or until 180 seconds are reached. If the animals fell during the stabilizing period, they were placed back on the rod to complete the session. The total testing time was 240 seconds (60 seconds stabilization time and 180 seconds test time). Each trial was performed twice a day (2 hour interval between sessions) for 3 consecutive days. The latency to fall (seconds) was recorded and all six scores were averaged per mouse. The average data was expressed as latency to fall (in seconds) for each group mice at 3 age groups.
The distal tendon of the extensor digitorum longus (EDL) muscle was tied securely to the lever arm of a servomotor/force transducer (model 305B, Aurora Scientific, Richmond Hill, ON, Canada) and the proximal tendon to a tissue clamp. Muscles were stimulated between two platinum electrodes. […] With the muscle held at Lo using stimulation frequencies of 30, 50, 80, 100, 120 and 150 Hz, the maximum isometric tetanic force (Po) developed during a 300 ms train of stimulation pulses was recorded for the EDL muscle. The muscle length was then measured with calipers and after removal of the muscle from the bath the mass of the muscle was determined. For each muscle, the optimum fiber length (Lf) was calculated by multiplying Lo by a previously determined Lf/Lo ratio of 0.45. Total muscle fiber cross-sectional area was determined by dividing the wet mass by the product of Lf and the density of mammalian skeletal muscle (1.06 mg/mm^3). Maximum isometric specific force (sPo) was determined by dividing Po by the total muscle fiber cross-sectional area.

The test system of a further test is DBA/1 mice. The test is described as follows: Collagen antibody induced arthritis (CAIA) model. Type of test: in vivo, mouse. Particulars: for Mean clinical severity score / Reduction as compared with vehicle-treated mice: prednisone 5 mg/kg, Example 9 20 mg/kg oral. As to the method: On day 1, DBA/1 mice (Jackson Labs, Bar Harbor, Me.) received an intraperitoneal (i.p.) injection of 2 mg of monoclonal antibody cocktail specific for collagen (CII) (MD Biosciences, St. Paul, Minn.). Two days later (day 3), mice received an i.p. injection of 100 μg of lipopolysaccharide (LPS). Mean clinical severity of CAIA was determined using a macroscopic clinical severity scoring system every 2-3 days by three individuals until the end of the experiment (day 14 post antibody cocktail injection). The scoring criteria was performed as follows: 0: No signs of disease; 1: Mild redness and/or swelling of one digit; 2: Redness and/or swelling of 2 digits; 3: Redness and/or swelling of more than 2 digits; 4: Redness and swelling of entire paw.
For intervention studies, mice (n=10) received an oral dose of 20 mg/kg of the compound of Example 9 suspended in cherry syrup (30 μl total volume) on day 0 through day 14. Additional groups of mice (n=10) received 5 mg/kg of prednisone in cherry syrup as a positive control, or cherry syrup alone as a negative control. On day 14, animals were sacrificed via CO2 exposure. Statistical analysis was performed using a two-way ANOVA followed by a Bonferroni post-hoc test.

The subject of a further test is C57BL/6 mice. The test is described as follows: Mouse carrageenan-induced paw edema model. The note with it: 10, 20, 40 mg/kg in cherry syrup; 5 hours after carrageenan. The format is in vivo. On the procedure: Female C57BL/6 mice (n=5 per group) were administered prednisone (5 mg/kg) and the compound of Example 9 (10, 20, 40 mg/kg) in cherry syrup. 24 hours later, drugs and vehicle control (syrup) were administered again. 2 hours later, mice were anesthetized, paw thickness was measured with a caliper to obtain a baseline value, and 1% carrageenan was injected subcutaneously in the subplantar region of the right hind paw. Mice were sacrificed 5 hours later and paw edema was measured via caliper. Change in thickness was calculated by subtracting baseline value from post-carrageenan injection value. Statistical analysis was performed using a Student's T-test.
Background: In the carrageenan paw model, swelling and tenderness develop within hours.

A further test has as its system mice. Description: OVA-induced mouse model of acute allergic asthma. Type of test: in vivo. The note with it: 20 mg/kg oral on days 6-11. As to the method: The model used in the current studies has been previously described (Gwinn et al. 2006; Balsley et al. 2010). Briefly, mice were primed via intraperitoneal (i.p) injection with 50 μg of OVA in PBS with 100 μl of alum (200 μl total volume per mouse) on day 0. OVA-primed mice were challenged under light anesthesia (isoflurane) by intranasal delivery of 100 μg of OVA in PBS on days 7-10. Mice were sacrificed via CO2 exposure on day 12 for analysis.
For in vivo intervention studies, mice (n=5) received an oral dose of 20 mg/kg of the compound of Example 9 suspended in cherry syrup (30 μl total volume) on days 6-11. Additional groups of mice (n=5) received 5 mg/kg of prednisone in cherry syrup as a positive control, or cherry syrup alone as a negative control. Following sacrifice on day 12, leukocytes were collected from the airways via bronchoalveolar lavage (BAL). For this procedure, a cannula was inserted into the trachea and two 1 ml washes of cold PBS were infused in and out of the airways. […]
BAL and lung tissue cells were treated with ammonium chloride lysis buffer to remove red blood cells. The remaining leukocytes were then counted and stained for FACS analysis with a combination of PE-Cy5-anti-mouse CD4 and FITC-anti-mouse CD62L to identify effector/memory CD4+ cells (CD4+/CD62L−). […]

Setting [1] is: 20 and 40 mg/kg/day for 3 months, vs untreated and prednisolone treated.

Consider `C[C@]12CCC(=O)C=C1CCC1C2=CC[C@@]2(C)C1CC[C@]2(O)C(=O)CO` (stereo partly drawn) [Example 1, (10S,13S,17R)-17-hydroxy-17-(2-hydroxyacetyl)-10,13-dimethyl-6,7,8,10,12,13,14,15,16,17-decahydro-1H-cyclopenta[a]phenanthren-3(2H)-one], for which the “Histology (H&E) of gastrocnemius muscle” value in the test on mdx mice (setting [1]) is “significant decrease in inflammation, degeneration, and increase in regenerating muscle fibers”.
Regarding `C[C@]12C=CC(=O)C=C1CCC1C2=CC[C@@]2(C)C1CC[C@]2(O)C(=O)CO` (stereo partly drawn) [Example 2, (10S,13S,17R)-17-hydroxy-17-(2-hydroxyacetyl)-10,13-dimethyl-6,7,8,10,12,13,14,15,16,17-decahydro-3H-cyclopenta[a]phenanthren-3-one], the “Histology (H&E) of gastrocnemius muscle” value in the test with mdx mice (setting [1]) is “significant decrease in inflammation, degeneration, and increase in regenerating muscle fibers”.
On to `C[C@@H]1CC2C3CCC4=CC(=O)C=C[C@]4(C)C3=CC[C@]2(C)[C@@]1(O)C(=O)CO` (stereo partly drawn) [Example 9, (10S,13S,16R,17R)-17-hydroxy-17-(2-hydroxyacetyl)-10,13,16-trimethyl-6,7,8,10,12,13,14,15,16,17-decahydro-3H-cyclopenta[a]phenanthren-3-one], for which, in the test on DBA/1 mice (20 mg/kg oral, day 0 through day 14), the “Collagen antibody induced arthritis” value is given as “effective at reducing collagen antibody induced arthritis”. The “Mean clinical severity score” value was determined as 4.5 ± 0.95 in the test on DBA/1 mice (Day 7), 5.0 ± 0.77 in the test on DBA/1 mice (Day 9), 5.6 ± 0.82 with DBA/1 mice (Day 11) and 3.1 ± 0.69 with DBA/1 mice (Day 14). The “Reduction as compared with vehicle-treated mice” value in the test on DBA/1 mice (Day 7) was found to be 43.8%; in the test on DBA/1 mice (Day 9) it was 35.5%; with DBA/1 mice (Day 11), 41.3%; with DBA/1 mice (Day 14) it was 50%. Besides, the Carrageenan-induced paw edema result in the test with C57BL/6 mice is “effective at reducing mouse paw edema induced by carrageenan”. Also, the “Parameters of acute allergic lung inflammation (leukocyte infiltration, mucus production)” value with mice is “effective at improving parameters of acute allergic lung inflammation”.
In the case of `C[C@]12C=CC(=O)C=C1CC[C@@H]1[C@@H]2[C@@H](O)C[C@@]2(C)[C@H]1CC[C@]2(O)C(=O)CO` [Prednisolone], the “Body weight vs untreated mice” value with mdx mice (5 mg/kg/day per oral in feed, 33.8 weeks age) is recorded as “significantly lower body weight”. Moreover, the “Histology (H&E) of gastrocnemius muscle” value with mdx mice (continuous prednisolone 5 mg/kg/day) was “appeared to increase degeneration and decrease in regeneration of dystrophic skeletal muscle”. The “EDL specific force vs untreated” value in the test with mdx mice (prednisolone 5 mg/kg/day) was “no statistically significant (P<0.05) difference in specific force”.
Regarding `C[C@]12C=CC(=O)C=C1CC[C@@H]1[C@@H]2C(=O)C[C@@]2(C)[C@H]1CC[C@]2(O)C(=O)CO` [Prednisone, reference compound], the “Mean clinical severity score” value in the test with DBA/1 mice (Day 7) is 2.4 ± 0.68; with DBA/1 mice (Day 9) it was 1.5 ± 0.27; in the test on DBA/1 mice (Day 11) it was 2.9 ± 0.39; in the test with DBA/1 mice (Day 14) it was 0.7 ± 0.3. Besides, the “Reduction as compared with vehicle-treated mice” value in the test with DBA/1 mice (Day 7) was 69.8%; in the test on DBA/1 mice (Day 9) it was 69.8%; in the test on DBA/1 mice (Day 11) it was 69.1%; with DBA/1 mice (Day 14), 88.7%.
